Assay results from article PMC11650361 (Archiv Der Pharmazie, 2024).
Like-named read-outs stand apart in the source and are kept apart here.

What was measured:
[1] = set-up: method as in PMID 35322571; conditions: cited from earlier work
porcine liver CES [2] = tested on: porcine liver CES; set-up: method as in PMID 35322571; conditions: % inhibition at 20 μM; cited from earlier work
equine serum BChE = molecular target: T1, equine serum BChE (Equus caballus, UniProt P81908); assay: biochemical; conditions: for IC50: equine serum BChE, mean ± SEM, n = 3
T1 construct: purchased Sigma-Aldrich; Milamed, Perm, Russia (supplement); host or cells: horse serum
T1 sequence (P81908 whole entry): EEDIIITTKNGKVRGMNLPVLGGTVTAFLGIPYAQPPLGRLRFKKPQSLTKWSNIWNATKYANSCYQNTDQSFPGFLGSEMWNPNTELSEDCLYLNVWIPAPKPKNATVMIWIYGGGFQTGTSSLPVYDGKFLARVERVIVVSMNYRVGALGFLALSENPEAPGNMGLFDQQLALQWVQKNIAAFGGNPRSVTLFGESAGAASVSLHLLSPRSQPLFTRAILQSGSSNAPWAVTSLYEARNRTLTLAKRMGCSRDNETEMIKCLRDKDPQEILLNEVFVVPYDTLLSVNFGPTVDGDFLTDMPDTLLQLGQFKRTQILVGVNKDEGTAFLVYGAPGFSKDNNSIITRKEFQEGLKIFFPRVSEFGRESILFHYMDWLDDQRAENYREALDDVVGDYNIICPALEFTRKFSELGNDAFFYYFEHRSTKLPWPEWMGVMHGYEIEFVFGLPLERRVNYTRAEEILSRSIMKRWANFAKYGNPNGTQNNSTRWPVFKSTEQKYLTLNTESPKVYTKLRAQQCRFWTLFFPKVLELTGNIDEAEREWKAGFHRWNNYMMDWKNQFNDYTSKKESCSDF

[3] = tested on: HEK293T (human embryonic kidney) cells; assay: Cytotoxicity, MTT assay, HEK293T; assay type: cell-based; conditions: HEK-293T, 24 h
human erythrocyte AChE = molecular target: T2, human erythrocyte AChE (Homo sapiens, UniProt P22303); assay: biochemical; assay type: biochemical; conditions: human erythrocyte AChE; mean ± SEM, n = 3
T2 construct: purchased Sigma-Aldrich; Milamed, Perm, Russia (supplement); host or cells: human erythrocytes
T2 sequence (P22303 32-617 isoform P22303-2 limits assumed): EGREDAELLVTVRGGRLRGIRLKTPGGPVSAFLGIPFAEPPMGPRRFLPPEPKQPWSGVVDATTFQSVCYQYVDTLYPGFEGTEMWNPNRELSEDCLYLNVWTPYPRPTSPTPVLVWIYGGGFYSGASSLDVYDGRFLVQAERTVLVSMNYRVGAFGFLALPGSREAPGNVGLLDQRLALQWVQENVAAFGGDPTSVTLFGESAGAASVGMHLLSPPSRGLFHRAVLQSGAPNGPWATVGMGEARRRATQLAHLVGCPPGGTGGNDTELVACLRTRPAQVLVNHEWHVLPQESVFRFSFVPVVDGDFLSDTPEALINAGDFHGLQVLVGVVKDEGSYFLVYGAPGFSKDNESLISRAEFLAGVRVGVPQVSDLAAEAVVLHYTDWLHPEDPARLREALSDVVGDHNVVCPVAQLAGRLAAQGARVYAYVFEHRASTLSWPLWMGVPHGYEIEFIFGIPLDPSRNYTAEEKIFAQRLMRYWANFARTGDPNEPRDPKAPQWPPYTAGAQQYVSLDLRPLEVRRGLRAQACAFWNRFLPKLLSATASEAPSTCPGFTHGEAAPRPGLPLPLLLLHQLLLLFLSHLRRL

[4] = molecular target: T3, PAS of Electrophorus electricus AChE (EeAChE) (Electrophorus electricus, UniProt O42275); assay type: binding; conditions: 20 µM compound concentration
T3 construct: purchased Sigma-Aldrich type VI-S; host or cells: electric eel tissue
T3 sequence (O42275 24-633): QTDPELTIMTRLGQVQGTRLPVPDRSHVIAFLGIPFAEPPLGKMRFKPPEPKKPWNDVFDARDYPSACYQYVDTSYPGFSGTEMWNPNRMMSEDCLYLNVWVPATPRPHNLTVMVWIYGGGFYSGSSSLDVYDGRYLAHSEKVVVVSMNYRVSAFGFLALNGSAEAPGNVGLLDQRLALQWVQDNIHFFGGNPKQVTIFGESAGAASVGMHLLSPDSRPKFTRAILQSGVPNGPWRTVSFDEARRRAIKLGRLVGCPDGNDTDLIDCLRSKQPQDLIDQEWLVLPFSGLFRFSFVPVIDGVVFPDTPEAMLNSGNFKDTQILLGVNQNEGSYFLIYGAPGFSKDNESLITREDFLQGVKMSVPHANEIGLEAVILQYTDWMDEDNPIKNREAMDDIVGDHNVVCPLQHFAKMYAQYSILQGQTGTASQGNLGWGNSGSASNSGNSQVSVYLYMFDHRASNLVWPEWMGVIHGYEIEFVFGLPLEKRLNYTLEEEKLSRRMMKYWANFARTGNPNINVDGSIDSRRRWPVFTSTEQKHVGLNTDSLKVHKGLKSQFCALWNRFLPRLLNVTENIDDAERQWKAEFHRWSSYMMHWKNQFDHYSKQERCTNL
Procedure: The ability of the test compounds to competitively displace propidium was evaluated by the fluorescence method,^[ [65] ^] as described in detail in Makhaeva et al.^[ [66] ^] […] After 15 min of incubation of the test compounds at a concentration of 20 μM with a 7 μM solution of EeAChE in 1 mM Tris‐HCl buffer, pH 8.0, 25°C, propidium iodide (final concentration 8 μM) was added. Then, the solutions were incubated for 15 min and the fluorescence spectrum was recorded (530 nm (excitation) and 600 nm (emission)). […] Measurements were performed in triplicate on a FLUOStar Optima microplate reader (BMG LabTech).
The 7 μM EeAChE was incubated with the test compound at a concentration of 20 μM in 1 mM Tris-HCl buffer pH 8.0, 25 °C, for 15 min. After that, propidium iodide was added at final concentration of 8 μM. The samples were incubated for 15 min and the fluorescence spectrum (530 nm (excitation) and 600 nm (emission)) was taken. […] The measurements were carried out in triplicate on a FLUOStar Optima microplate reader. The degree of propidium displacement (% displacement) from the PAS of EeAChE was calculated by formula (1):
% Displacement = 100 – (IFAChE+ Propidium + inhibitor / IFAChE + Propidium) × 100 (1),
where IFAChE + Propidium is the fluorescence intensity of the propidium associated with AChE in the absence of the test compound (taken as 100%), and IFAChE + Propidium + inhibitor is the fluorescence intensity of the propidium associated with AChE in the presence of the test compound.

[5] = ABTS radical cation scavenging activity assay; conditions: for IC50: concentration reducing ABTS radical by 50%, 1 h; for ABTS^•+‐scavenging activity, TEAC: relative to Trolox, 1 h incubation, n.a. = inactive
Procedure: Data are given for 1 h of incubation of compounds with ABTS^•+. The AOA of the compounds was evaluated as Trolox equivalent antioxidant capacity (TEAC values) as the ratio of the slopes of the concentration–response curves, test compound/Trolox. All tests were performed at least in triplicate in three independent experiments. The IC50 values for the test compounds were also determined.

[6] = tested on: SH‐SY5Y (human neuroblastoma) cells; assay: Cytotoxicity, MTT assay, SH-SY5Y; assay type: cell-based; conditions: 24 h
β‐amyloid (1–42) (Aβ42) = β‐amyloid (1–42) (Aβ42) (Homo sapiens, UniProt P05067); assay: Inhibition of Aβ42 self-aggregation (thioflavin T fluorescence); assay type: biochemical; conditions: Aβ42 50 µM, compound 100 µM; read-out: Inhibition of Aβ42 self‐aggregation, %
Sequence of β‐amyloid (1–42) (Aβ42) (P05067 672-713 limits assumed): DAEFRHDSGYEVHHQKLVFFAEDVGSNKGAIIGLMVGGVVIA
Procedure: Inhibition of Aβ42 self‐aggregation by test compounds was studied using the ThT fluorescence method^[ [67], [68] ^] with minor modifications as described in detail in Makhaeva et al.^[ [16] ^] Lyophilized hexamfluoroisopropanol‐pretreated Aβ42 (GenicBio Limited, 1 mg) was dissolved in DMSO to obtain a stable 500 μM solution. […] Myricetin and propidium iodide in the same concentration were used as references. […] Each assay was run in triplicate.
^c The inhibitory effect of the test compounds toward Aβ42 self-aggregation was determined using the thioflavin T (ThT) fluorescence method ^[5-7] with minor modifications as described in detail in ^[8]. Lyophilized HFIP-pretreated Aβ42 from BACHEM (Bubendorf, Switzerland) was used. […] Myricetin and propidium iodide were used as reference compounds (positive controls). Analyses were performed with a FLUOStar Optima microplate reader (LabTech, Ortenberg, Germany). The inhibition (%) of Aβ42 self-aggregation by the test compounds was calculated by the following equation: […]
where IFi and IFo are the fluorescence intensities obtained for Aβ42 in the presence and in the absence of inhibitor, respectively, after subtracting the fluorescence of respective blanks.

[7] = tested on: HepG2 cells (human hepatocellular carcinoma); assay: Cytotoxicity, MTT assay, HepG2; assay type: cell-based
porcine liver CES [8] = assay: In vitro CES inhibition (4-NPA substrate); assay type: biochemical; conditions: % inhibition at 20 μM; n.a. = not active
Procedure: The esterase profile of the synthesized conjugates was determined. This included an assessment of their inhibition of cholinergic targets AChE and BChE along with a structurally related enzyme CES (EC 3.1.1.1), which hydrolyzes numerous ester‐containing drugs and is considered as an off‐target for anti‐AD agents.^[ [9], [40] ^] Human erythrocyte AChE, equine serum BChE, and porcine liver CES were used.^[ [40], [41], [42] ^]
Initially, we used a single concentration of 20 µM for all compounds.
^a All experiments were carried out in accordance with the standard protocols approved by IPAС RAS. Human erythrocyte AChE, equine serum BChE were purchased from Milamed (Perm, Russia). Porcine liver CES, substrates, and reference compounds were from Sigma-Aldrich (St. Louis, MO, USA). The activity of enzymes was measured spectrophotometrically, as described in detail in ^[1] using ATCh iodide, BTCh iodide, and 4-NPA as substrates for AChE, BChE, and CES, respectively. Experimental conditions: K,Na-phosphate buffer (100 mM), 25 °С, pH 7.5 for AChE and BChE and pH 8.0 for CES assay. Measurements were carried out on a FLUOStar Optima microplate reader (BMG Labtech, Ortenberg, Germany). Test compounds were dissolved in DMSO; final concentration of solvent in the incubation mixture was 2% (v/v).

[9] = cited from earlier work
[10] = MTT, mean ± SEM, n = 3, read-out: HEK293T IC50
[11] = MTT, mean ± SEM, n = 3, read-out: SH‐SY5Y IC50
[12] = HepG2, MTT, 24 h, mean ± SEM, n = 3, read-out: Hep G2 IC50

SMILES	ABTS^•+‐scavenging activity, TEAC [1]	IC50 ([1]; read-out: ABTS^•+‐scavenging activity, IC50)	CES inhibition, % (porcine liver CES [2])	Selectivity index IC50AChE/IC50BChE (equine serum BChE)	IC50 (equine serum BChE)	IC50 [3, 10]	IC50 (human erythrocyte AChE)	Propidium displacement, % [4]	IC50 [5]	ABTS^•+‐scavenging activity, TEAC [5]	ABTS^•+‐scavenging activity, TEAC ([5]; listed as 9a a)	IC50 [6, 11]	inhibition at 100 µM (β‐amyloid (1–42) (Aβ42))	IC50 [7, 12]	CES inhibition, % (porcine liver CES [8])	IC50 ([3]; read-out: HEK293T IC50)	pKa of the endocyclic nitrogen atom [9]	IC50 ([6]; read-out: SH‐SY5Y IC50)	IC50 ([7]; HepG2, 24 h, read-out: Hep G2 IC50)
CCCCCCNC(=O)c1ccccc1O [compound 14, N‐hexylsalicylamide]	0.39 ± 0.04	46.5 ± 2.3 µM	4.9 ± 1.0%																
Oc1ccccc1C=NCCCCNc1c2c(nc3c1CCC3)CCCC2 [9a, 2‐[({4‐[(2,3,5,6,7,8‐Hexahydro‐1H‐cyclopenta[b]quinolin‐9‐yl)amino]butyl}imino)methyl]phenol]				5.2	642 ± 7 nM	38.1 ± 2.1 µM	3310 ± 20 nM	12.5 ± 1.1%	26.6 ± 1.1 µM	0.65 ± 0.03	0.65	73.2 ± 0.9 µM	20.1 ± 1.4%	> 100 µM	10.5 ± 0.9%				
O=C(NCCCCNc1c2c(nc3c1CCC3)CCCC2)c1ccccc1O [7a, N‐{4‐[(2,3,5,6,7,8‐Hexahydro‐1H‐cyclopenta[b]quinolin‐9‐yl)amino]butyl}−2‐hydroxybenzamide]				6.0	254 ± 23 nM	38.4 ± 3.6 µM	1520 ± 140 nM	10.8 ± 0.8%	17.6 ± 0.8 µM	0.97 ± 0.04		49.6 ± 3.7 µM	41.3 ± 3.3%	74.7 ± 3.4 µM	5.0 ± 0.1%				
Cl.Nc1c2c(nc3c1CCC3)CCCC2.O [Amiridine, 9‐amino‐2,3,5,6,7,8‐hexahydro‐1H‐cyclopenta[b]quinoline monohydrochloride monohydrate, reference compound]										0.040 ± 0.003						106 ± 3 µM	9.52	135 ± 18.2 µM	224 ± 11.2 µM
Oc1ccccc1C=NCCCCCCCCNc1c2c(nc3c1CCC3)CCCC2 [9c, 2‐[({8‐[(2,3,5,6,7,8‐Hexahydro‐1H‐cyclopenta[b]quinolin‐9‐yl)amino]octyl}imino)methyl]phenol]				56.8	25 ± 1 nM	22.2 ± 2.2 µM	1420 ± 140 nM	11.6 ± 0.9%	29.6 ± 1.2 µM	0.63 ± 0.02		63.5 ± 4.4 µM	71.7 ± 5.1%	95.9 ± 5.4 µM	25.8 ± 0.7%				
